# From patent US20220160815A1, “PEPTIDES AND USES THEREOF” (LATERAL IP PTY LTD, priority 2019, published 2022)
# Where “and” joins values, the source holds several entries; their conditions need not be identical. Equal entries are not always repeated.
# Experiments:
# Assay type in all cases: in vivo, human
# migraine headache = test: Randomised, placebo-controlled, double-blind, crossover proof of concept study of oral LAT8881 in acute migraine headache; conditions: 60 mg oral
# Description: The primary objective of this study was to evaluate the effect of oral LAT8881 on migraine headache compared with placebo, when assessed by the headache severity on an 11-point Numeric Rating Scale (NRS).
# The secondary objectives of this study included: • a) to evaluate the effect of oral LAT8881 on migraine-associated symptoms compared with placebo, when assessed by the change in symptoms based on a 11-point Likert scale; • b) to investigate the percentage of subjects achieving “no headache pain” following treatment with oral LAT8881 compared with placebo at any time-point to 8 hours post dose, with no use of rescue medication; and • c) to evaluate the safety and tolerability of single doses of oral LAT8881 in subjects with migraine headache.
# This was a randomised, placebo-controlled, double-blind, crossover, Phase Ha proof of concept study to investigate the efficacy and safety of oral LAT8881 (SEQ ID NO:2) in acute migraine headache with or without aura.
# Subjects entered into the study were randomised to receive IMP (LAT8881; 60 mg or placebo), taken at the onset (within one hour from the onset of pain) of a migraine headache of moderate to severe intensity [Numeric rating scale (NRS)≥4]. Subjects were advised not to take rescue medication until at least 2 hours post dose with LAT8881. Subjects were given one dose of IMP (2 capsules), to treat one migraine headache.
# After treatment of one migraine headache (or a maximum 28 days), the subject was asked to return to the clinic for re-evaluation and crossover to the second treatment. In the second treatment period, subjects were asked to take IMP in the same manner as in treatment period 1.
# Subjects entered into the study were randomised to receive IMP (LAT8881; 60 mg or placebo; orally), to be taken at the onset (within one hour from the onset of pain) of a migraine headache of moderate to severe intensity.
# Primary efficacy endpoints included a change in migraine headache pain score, using an 11-point NRS, (0=none, 10=worst imaginable), from the time of dosing to 0.5, 1.0, 1.5, 2, 4, 8 and 24 hours post dose. Pain was recorded in the subject' diary and was expected to reflect the subject's pain at the time of recording.
# Secondary efficacy endpoints included: • a) Change in migraine-associated symptoms of nausea, photophobia and phonophobia. Symptoms were assessed on an 11-point Likert scale with 0=no symptoms and 10 being severe symptoms at time of dosing and at 0.5, 1.0, 1.5, 2, 4, 8 and 24 hours post dose; • b) Change in each subject's most troublesome symptom that may include nausea, photophobia and phonophobia cognitive impairment, dizziness and functional disability. Symptoms were assessed on an 11-point Likert scale with 0=no symptoms and 10 being severe symptoms at time of dosing and at 0.5, 1.0, 1.5, 2, 4, 8 and 24 hours post dose; and • c) The percentage of subjects achieving “no headache pain” at 0.5, 1.0, 1.5, 2, 4 and 8 hours post dose.
# Post-hoc analyses were undertaken to assess the responder rate at each time point after dose of IMP. Two classifications of responder were defined: at least 30% change from baseline in NRS score and an NRS score of less than or equal to 3 at the post dose time points. After unblinding, it was discovered that one subject had recorded a pre-dose NRS score of 2 in period 1, a major protocol deviation as the instructions were to take IMP within one hour of the onset of a migraine headache of moderate to severe intensity (NRS>=4). This subject's data for this period was excluded. The responder rate for each treatment and difference between LAT8881 and placebo (95% confidence interval) at each time point are provided in Table 2, below (P1=Period 1; P2=Period 2; Photo=Photophobia; Phono=Phonophobia). FIGS. 1-4 show selected examples of NSR Pain Scores of subjects that completed the study and who received treatment with either placebo or with LAT8881 (SEQ ID NO:2; 60 mg per dose, orally).
# migraine [1] = test: Case studies 1-3: oral LAT8881 capsules taken during a migraine attack, self-rated pain and nausea
# migraine [2] = test: Case study 4: LAT8881 injected into the right greater occipital nerve during a migraine attack; conditions: 0.4 mg injected into right greater occipital nerve
# Protocol: The subject was a person that suffers from migraines and occipital neuralgia. The subject presented with bilateral tenderness of both occipital nerve sites and bilateral headaches, bitemporally and behind the eyes, all indicative of a migraine attack.
# Dosage: 0.4 mg of LAT8881 (SEQ ID NO:2) injected into the right greater occipital nerve.
# [3] = 2 subjects menstruating at the time of the migraine, NRS pain score
# [4] = of the 15 subjects who completed the study
# [5] = subjects who showed a benefit, NRS pain score
# [6] = subjects who were slightly worse, NRS pain score
# [7] = Case Study 2, 1 mg, 4 hours after dosing, 8 out of 10 at time of dosing
sequence,measurement,setting,value
"YLRIVQCRSVEGSCGF (listed as Homo sapiens) [LAT8881, C-terminal fragment of human growth hormone (hGH) spanning amino acid residues 178-192, with an additional tyrosine residue at the N-terminus]",average score reduction in menstruating subjects,migraine headache; [3],6
same,range of score reduction in menstruating subjects,migraine headache; [3],10 to 2
same,Nausea change 2 hrs LAT8881,"migraine headache; 11-point Likert scale, individual subjects",0 (2×) and −5 (2×) and −10 and 1 and −1 (4×) and −2 (2×) and 2 and −8 and 3 and −3 and 6
same,LAT8881 pain score at 2 hours,"migraine headache; 11-point NRS (0=none, 10=worst imaginable), individual subjects",2 and 1 and 0 and 5 (2×) and 8 (3×) and 6 (4×) and 3 (2×) and 4 and 7 and 9
same,"Responder rate (95% CI), 30% change from baseline",migraine headache; 30 minutes post dose,0
same,"Responder rate (95% CI), NRS Score <= 3",migraine headache; 30 minutes post dose,0
same,"Count/Total, NRS Score <= 3","migraine headache; 30 minutes post dose, responder = NRS score of less than or equal to 3",0/16
same,"Count/Total, 30% change from baseline","migraine headache; 30 minutes post dose, responder = at least 30% change from baseline in NRS score",0/16
same,"Count/Total, 30% change from baseline",migraine headache; 1 hour post dose,2/16
same,"Count/Total, NRS Score <= 3",migraine headache; 1 hour post dose,1/16
same,"Responder rate (95% CI), 30% change from baseline",migraine headache; 1 hour post dose,12.50
same,"Responder rate (95% CI), 30% change from baseline, difference LAT8881 60 mg-Placebo",migraine headache; 1 hour post dose,"12.5 (−3.7, 28.7)"
same,"Responder rate (95% CI), NRS Score <= 3",migraine headache; 1 hour post dose,6.25
same,"Responder rate (95% CI), NRS Score <= 3, difference LAT8881 60 mg-Placebo",migraine headache; 1 hour post dose,"0 (−16.77, 16.77)"
same,"Count/Total, 30% change from baseline",migraine headache; 1.5 hours post dose,3/16
same,"Count/Total, NRS Score <= 3",migraine headache; 1.5 hours post dose,3/16
same,"Responder rate (95% CI), 30% change from baseline",migraine headache; 1.5 hours post dose,18.75
same,"Responder rate (95% CI), 30% change from baseline, difference LAT8881 60 mg-Placebo",migraine headache; 1.5 hours post dose,"12.5 (−10, 35)"
same,"Responder rate (95% CI), NRS Score <= 3",migraine headache; 1.5 hours post dose,18.75
same,"Responder rate (95% CI), NRS Score <= 3, difference LAT8881 60 mg-Placebo",migraine headache; 1.5 hours post dose,"12.5 (−10, 35)"
same,subjects menstruating at the time of the migraine who benefited,migraine headache; 2 hours,2 out of 2
same,"Count/Total, 30% change from baseline",migraine headache; 2 hours post dose,8/16
same,"Count/Total, NRS Score <= 3",migraine headache; 2 hours post dose,5/16
same,"Responder rate (95% CI), 30% change from baseline",migraine headache; 2 hours post dose,50.00
same,"Responder rate (95% CI), 30% change from baseline, difference LAT8881 60 mg-Placebo",migraine headache; 2 hours post dose,"18.75 (−14.66, 52.16)"
same,"Responder rate (95% CI), NRS Score <= 3",migraine headache; 2 hours post dose,31.25
same,"Responder rate (95% CI), NRS Score <= 3, difference LAT8881 60 mg-Placebo",migraine headache; 2 hours post dose,"25 (-0.62, 50.62)"
same,"Count/Total, 30% change from baseline",migraine headache; 4 hours post dose,8/16
same,"Count/Total, NRS Score <= 3",migraine headache; 4 hours post dose,5/16
same,"Responder rate (95% CI), 30% change from baseline",migraine headache; 4 hours post dose,50.00
same,"Responder rate (95% CI), 30% change from baseline, difference LAT8881 60 mg-Placebo",migraine headache; 4 hours post dose,"0 (−34.65, 34.65)"
same,"Responder rate (95% CI), NRS Score <= 3",migraine headache; 4 hours post dose,31.25
same,"Responder rate (95% CI), NRS Score <= 3, difference LAT8881 60 mg-Placebo",migraine headache; 4 hours post dose,"−6.25 (-39.09, 26.59)"
same,"Count/Total, 30% change from baseline",migraine headache; 8 hours post dose,14/16
same,"Count/Total, NRS Score <= 3",migraine headache; 8 hours post dose,13/16
same,"Responder rate (95% CI), 30% change from baseline",migraine headache; 8 hours post dose,87.50
same,"Responder rate (95% CI), 30% change from baseline, difference LAT8881 60 mg-Placebo",migraine headache; 8 hours post dose,"25 (−3.73, 53.73)"
same,"Responder rate (95% CI), NRS Score <= 3",migraine headache; 8 hours post dose,81.25
same,"Responder rate (95% CI), NRS Score <= 3, difference LAT8881 60 mg-Placebo",migraine headache; 8 hours post dose,"25 (−5.93, 55.93)"
same,"Count/Total, 30% change from baseline",migraine headache; 24 hours post dose,16/16
same,"Count/Total, NRS Score <= 3",migraine headache; 24 hours post dose,15/16
same,"Responder rate (95% CI), 30% change from baseline",migraine headache; 24 hours post dose,100.00
same,"Responder rate (95% CI), 30% change from baseline, difference LAT8881 60 mg-Placebo",migraine headache; 24 hours post dose,"12.5 (−3.7, 28.7)"
same,"Responder rate (95% CI), NRS Score <= 3",migraine headache; 24 hours post dose,93.75
same,"Responder rate (95% CI), NRS Score <= 3, difference LAT8881 60 mg-Placebo",migraine headache; 24 hours post dose,"6.25 (−13.83, 26.33)"
same,LAT8881 change from baseline,"migraine headache; NRS pain score, predose to 2 hours, individual subjects",−3 (3×) and −5 and −10 and 1 (3×) and 2 (2×) and −4 (2×) and −2 (3×) and −1 and 0
same,"Most Troublesome, change 2 hrs LAT8881","migraine headache; most troublesome symptom, 11-point Likert scale, individual subjects",−5 (3×) and −10 and 3 (3×) and 0 (4×) and −4 and 1 and −2 (3×) and −1
same,number of subjects slightly worse at 2 hours,migraine headache; [4],5
same,number of subjects unchanged at 2 hours,migraine headache; [4],1
same,number of subjects whose pain had reduced to 3 or less after 2 hours,migraine headache; [4],4
same,number of subjects who showed a benefit at 2 hours,"migraine headache; of the 15 subjects who completed the study, NRS pain score",9
same,Phono change at 2 hrs LAT8881,"migraine headache; phonophobia, 11-point Likert scale, individual subjects",0 (9×) and −7 and 4 and 2 (2×) and −4 and −1 and −2 and 3
same,Photo change at 2 hrs LAT8881,"migraine headache; photophobia, 11-point Likert scale, individual subjects",0 (3×) and −2 (5×) and −7 and 1 (4×) and −6 (2×) and −4
same,pain score reduction in the subject menstruating at the time of each treatment,migraine headache; placebo led to an increase of 3 in the same subject,2
same,median benefit at 2 hours,migraine headache; [5],3
same,range of benefit at 2 hours,migraine headache; [5],1-10
same,median increase at 2 hours,migraine headache; [6],2
same,range of increase at 2 hours,migraine headache; [6],1-2
same,migraine pain rating,"migraine [1]; Case Study 1, 1 mg (four 0.25 mg capsules), an hour after dosing, 8 out of 10 at time of dosing",7 out of 10
same,nausea rating,"migraine [1]; Case Study 1, 1 mg, 4 hours after dosing, 7 out of 10 at time of dosing",3 out of 10
same,migraine pain rating,"migraine [1]; Case Study 1, 1 mg, 4 hours after dosing, 8 out of 10 at time of dosing",6 out of 10
same,nausea rating,"migraine [1]; Case Study 1, 1 mg, an hour after dosing, 7 out of 10 at time of dosing",5 out of 10
same,migraine recurrence after dosing,"migraine [1]; Case Study 1, 1 mg, subject averages about one migraine per month",No migraine was reported in the following month
same,migraine pain rating,"migraine [1]; Case Study 2, 1 mg (two 0.5 mg capsules), an hour after dosing, 8 out of 10 at time of dosing",2 out of 10
same,migraine pain rating,migraine [1]; [7],1 out of 10
same,nausea rating,migraine [1]; [7],1 out of 10
same,nausea rating,"migraine [1]; Case Study 2, 1 mg, an hour after dosing, 8 out of 10 at time of dosing",2 out of 10
same,migraine recurrence after dosing,"migraine [1]; Case Study 2, 1 mg, subject averages about two migraines per month",No migraines reported in the following two months
same,nausea rating,"migraine [1]; Case Study 3, 0.5 mg, overnight, 0 out of 10 at time of dosing",0 out of 10
same,migraine recurrence after dosing,"migraine [1]; Case Study 3, 0.5 mg, subject has migraines once every 3-6 months",No migraines reported in the following three months
same,migraine pain reported by subject,"migraine [2]; Case Study 4, migraines and occipital neuralgia, within ten minutes",pain-free
same,other effects reported by subject,migraine [2]; Case Study 4,mental clarity and loss of brain fog
same,tenderness over the occipital nerve,"migraine [2]; Case Study 4, within ten minutes, bilateral tenderness at presentation",no tenderness on either side over the occipital nerve
